Measured values from the Deep4Chem optical property database.

Assay: solvent given as SMILES

## CCOC(=O)C(C(=O)OCC)C1=[N+]2C(=C(c3ccc(C)cc3)c3ccc(C(C(=O)OCC)C(=O)OCC)n3[B-]2(F)F)C=C1
In C1CCCCC1
  fluorescence lifetime: 3.15 ns
In C1CCOC1
  fluorescence lifetime: 2.82 ns
In CCOC(C)=O
  fluorescence lifetime: 2.5 ns
In CO
  fluorescence lifetime: 2.18 ns
In Cc1ccccc1
  fluorescence lifetime: 4.14 ns
In ClC(Cl)Cl
  fluorescence lifetime: 3.62 ns

## C(=C\c1nc(/C=C/c2ccc(-n3c4ccccc4c4ccccc43)cc2)nc(/C=C/c2ccc(-n3c4ccccc4c4ccccc43)cc2)n1)/c1ccc(-n2c3ccccc3c3ccccc32)cc1
In C1CCOC1
  fluorescence lifetime: 3.31 ns
In CC#N
  fluorescence lifetime: 2.03 ns
In Cc1ccccc1
  fluorescence lifetime: 3.87 ns
In ClCCl
  fluorescence lifetime: 4.03 ns

## CC(=O)OCCOCCN1C(=O)c2cc(NCCOCCO)c3c4c(cc(NCCOCCO)c(c24)C1=O)C(=O)N(CCOCCOC(C)=O)C3=O
In CO
  fluorescence lifetime: 8 ns
In ClC(Cl)Cl
  fluorescence lifetime: 9.6 ns
In O
  fluorescence lifetime: 4.4 ns

## C[Si]1(C)c2ccc(-c3cccs3)cc2C=Cc2cc(-c3cccs3)ccc21
In ClCCl
  fluorescence lifetime: 2 ns

## COc1ccc(-c2c3cc4ccccc4cc3c(-c3ccc(OC)cc3)c3cc4sc(C)cc4cc23)cc1
In ClCCl
  fluorescence lifetime: 15.4 ns

## COc1ccc(N(c2ccc(OC)cc2)c2ccc(-c3ccc4c(c3)C(=O)c3ccccc3C4=O)cc2)cc1
In CCCCCC
  fluorescence lifetime: 7.04 ns
In Cc1ccccc1
  fluorescence lifetime: 1.09 ns
In ClC(Cl)(Cl)Cl
  fluorescence lifetime: 5.94 ns

## COC(=O)C(NC(=O)OC(C)(C)C)c1ccc2oc(-c3cc(OC)c(OC)c(OC)c3)nc2c1 (stereo not given)
In CC1CCCCC1
  fluorescence lifetime: 1.01 ns
In CC#N
  fluorescence lifetime: 1.2 ns
In CO
  fluorescence lifetime: 1.28 ns

## NS(=O)(=O)c1ccc(N2N=C(c3ccc(O)cc3)CC2c2ccc(Br)cc2)cc1 (stereo not given)
In C1CCOC1
  fluorescence lifetime: 2.25 ns
In C1COCCO1
  fluorescence lifetime: 2.17 ns
In CC#N
  fluorescence lifetime: 2.2 ns
In CC(C)O
  fluorescence lifetime: 1.98 ns
In CCO
  fluorescence lifetime: 1.84 ns
In CCOC(C)=O
  fluorescence lifetime: 2.18 ns
In CN(C)C=O
  fluorescence lifetime: 2.12 ns
In CO
  fluorescence lifetime: 1.67 ns
In CS(C)=O
  fluorescence lifetime: 2 ns
In O
  fluorescence lifetime: 3.07 ns

## c1ccc(-p2c3ccccc3c3sc4ccccc4c32)cc1 (stereo not given)
In ClCCl
  fluorescence lifetime: 3.57 ns

## c1ccc(-c2cc(-c3ccc(N4c5ccccc5C(c5ccccc5)(c5ccccc5)c5ccccc54)cc3)nc(-c3ccccc3)n2)cc1
In O=P(c1ccccc1)(c1ccccc1)c1ccccc1Oc1ccccc1P(=O)(c1ccccc1)c1ccccc1
  fluorescence lifetime: 8.02 ns

## COc1ccc2c3c([nH]c2c1)C(C)=NCC3
In CC#N
  fluorescence lifetime: 5.29 ns
In CS(C)=O
  fluorescence lifetime: 2.91 ns
In O
  fluorescence lifetime: 4.65 ns

## C[n+]1ccn(CCCCc2ccc3c(c2)c2ccccc2n3-c2cc(C#N)c(C#N)cc2-n2c3ccccc3c3cc(CCCCn4cc[n+](C)c4)ccc32)c1
In CC#N
  fluorescence lifetime: 4.97 ns

## C(=C\c1ccc(N(c2ccccc2)c2ccccc2)cc1)/c1ccc(/C=C/c2ccc(N(c3ccccc3)c3ccccc3)cc2)cc1
In C1CCOC1
  fluorescence lifetime: 1.25 ns
In CS(C)=O
  fluorescence lifetime: 1.53 ns
In Cc1ccccc1
  fluorescence lifetime: 0.99 ns

## COC(=O)C(NC(=O)OC(C)(C)C)c1ccc2oc(-c3cc(OC)c(OC)cc3OC)nc2c1 (stereo not given)
In CC1CCCCC1
  fluorescence lifetime: 1.27 ns
In CC#N
  fluorescence lifetime: 1.78 ns
In CO
  fluorescence lifetime: 2.03 ns

## [NH-]c1cc(N)cc(-c2nc3ccccc3s2)c1
In O
  fluorescence lifetime: 3.98 ns

## CC(C)(C)c1ccc(C2=C(c3ccc(-n4c5ccccc5c5ccccc54)cc3)S(=O)(=O)c3c2sc(-c2ccc(-n4c5ccccc5c5ccccc54)cc2)c3-c2ccc(C(C)(C)C)cc2)cc1
In C1CCOC1
  fluorescence lifetime: 0.47 ns

## COc1ccc(-c2c3ccc([nH]3)c3nc(c(-c4ccc(C#N)cc4)c4ccc([nH]4)c4ccc([nH]4)c(-c4ccc(OC)cc4)c4ccc2o4)C=C3)cc1
In C1CCOC1
  fluorescence lifetime: 5.6 ns
In Cc1ccccc1
  fluorescence lifetime: 5.65 ns
In c1ccccc1
  fluorescence lifetime: 4.88 ns

## COc1cc(OC)c2cc(-c3ccccc3CC#N)c(=O)oc2c1
In ClC(Cl)Cl
  fluorescence lifetime: 2.8 ns

## CCCCCCCCN1C(=O)c2ccc3c4c(-c5ccc(-n6c7ccccc7c7ccccc76)cc5)cc5c6c(ccc(c7c(-c8ccc(-n9c%10ccccc%10c%10ccccc%109)cc8)cc(c2c37)C1=O)c64)C(=O)N(CCCCCCCC)C5=O
In ClC(Cl)Cl
  fluorescence lifetime: 3.4 ns

## CCC(CC)COC1=CC2=C3c4cc(OCC(CC)CC)c(-c5ccccc5)n4[B-](F)(F)[n+]4c3n(c3cc(C(C)(C)C)ccc34)[B-](F)(F)[N+]2=C1c1ccccc1
In C1CCOC1
  fluorescence lifetime: 0.97 ns
In ClCCl
  fluorescence lifetime: 1.01 ns

## c1cc2ccc3ccc(OP4(Oc5ccc6ccc7cccc8ccc5c6c78)=NP(Oc5ccc6ccc7cccc8ccc5c6c78)(Oc5ccc6ccc7cccc8ccc5c6c78)=NP(Oc5ccc6ccc7cccc8ccc5c6c78)(Oc5ccc6ccc7cccc8ccc5c6c78)=N4)c4ccc(c1)c2c34
In ClCCl
  fluorescence lifetime: 2.5 ns

## N#Cc1c(-n2c3ccccc3c3ccccc32)c(C#N)c(-n2c3ccccc3c3ccccc32)c(-n2c3ccccc3c3ccccc32)c1-n1c2ccccc2c2ccccc21
In Cc1ccccc1
  fluorescence lifetime: 17.8 ns

## c1cc2c3c(c1)OCCCCCCCOc1cccc(c1-c1c4ccccc4c-3c3ccccc13)OCCCCCCCO2
In C1CCCCC1
  fluorescence lifetime: 8.18 ns

## COc1ccc2cc([C@H](C)C(=O)O)ccc2c1
In C1CCOC1
  fluorescence lifetime: 11 ns
In CC#N
  fluorescence lifetime: 9.96 ns
In CC(C)O
  fluorescence lifetime: 10.8 ns
In CCCCO
  fluorescence lifetime: 11.4 ns
In CCO
  fluorescence lifetime: 10.4 ns
In CO
  fluorescence lifetime: 8.48 ns
In ClCCl
  fluorescence lifetime: 6.93 ns
In O
  fluorescence lifetime: 9.6 ns

## CCCCCCCCn1c(=O)c2cc3cc4cc5c(=O)n(CCCCCCCC)c(=O)c5cc4c(C#Cc4ccc(N(c5ccccc5)c5ccccc5)cc4)c3cc2c1=O
In ClC(Cl)Cl
  fluorescence lifetime: 4.2 ns

## COc1ccc(-c2c3cc4cc(C)sc4cc3c(-c3ccc(OC)cc3)c3cc4cc(C)sc4cc23)cc1
In ClCCl
  fluorescence lifetime: 9.7 ns

## COc1ccc(-c2cc(-c3ccc(OC)cc3)c3c(N)nc(N4CCCC4)c(C#N)c3n2)cc1
In CC#N
  fluorescence lifetime: 11.6 ns
In CC(C)=O
  fluorescence lifetime: 10 ns
In CC(C)O
  fluorescence lifetime: 11.6 ns
In CO
  fluorescence lifetime: 10.3 ns
In ClC(Cl)Cl
  fluorescence lifetime: 11.6 ns
In ClCCl
  fluorescence lifetime: 13.2 ns
In c1ccccc1
  fluorescence lifetime: 12 ns

## CCCCC(CC)CN1C(=O)c2cc(Oc3ccc(C(C)(C)C)cc3)c3c4c(Cl)cc5c6c(cc(Cl)c(c7c(Oc8ccc(C(C)(C)C)cc8)cc(c2c37)C1=O)c64)C(=O)N(c1c(C(C)C)cccc1C(C)C)C5=O (stereo not given)
In Cc1ccccc1
  fluorescence lifetime: 6.73 ns

## CSc1ccc(C#Cc2ccc(C#Cc3ccc(C#Cc4ccccc4C#N)cc3C#N)cc2C#N)cc1
In ClC(Cl)Cl
  fluorescence lifetime: 1.29 ns

## Cc1cc(C)c(C2=C3C=CC=[N+]3[B-]3(c4ccc5ccc6cccc7ccc4c5c67)Oc4cc(O)cc5c6ccc(C)cc6c6cc2n3c6c45)c(C)c1 (stereo not given)
In ClC(Cl)Cl
  fluorescence lifetime: 3.5 ns

## CC(C)n1c(=O)c2cc3ccc4cccc5ccc(c2c1=O)c3c45
In ClC(Cl)Cl
  fluorescence lifetime: 5.16 ns

## CCN(CC)c1ccc(-c2nc3cc(C(NC(=O)OC(C)(C)C)C(=O)OC)ccc3o2)c(O)c1 (stereo not given)
In CC1CCCCC1
  fluorescence lifetime: 0.22 ns
In CC#N
  fluorescence lifetime: 0.67 ns
In CO
  fluorescence lifetime: 0.25 ns

## O=c1[nH]c(=O)c2nc3ccccc3nc2[nH]1
In CC#N
  fluorescence lifetime: 0.35 ns

## COc1ccc(/C=C/C=C/C=C/c2ccc([N+](=O)[O-])cc2)cc1
In C1CCOC1
  fluorescence lifetime: 1.7 ns
In C1COCCO1
  fluorescence lifetime: 1.9 ns
In CC1CCCCC1
  fluorescence lifetime: 0.7 ns
In Cc1ccccc1
  fluorescence lifetime: 1.5 ns

## CN(C)c1ccc(/C=C/C(=C(C#N)C#N)c2ccc3c4c(cccc24)CC3)cc1
In C1CCOC1
  fluorescence lifetime: 5.2 ns
In CC#N
  fluorescence lifetime: 2.25 ns
In CC(C)=O
  fluorescence lifetime: 3.84 ns
In CCOC(C)=O
  fluorescence lifetime: 4.98 ns
In CN(C)C=O
  fluorescence lifetime: 3.31 ns
In CO
  fluorescence lifetime: 2.85 ns
In Cc1ccccc1
  fluorescence lifetime: 3.92 ns
In ClC(Cl)Cl
  fluorescence lifetime: 4.27 ns

## C[Si](C)(C)C#Cc1ccc(C#C[Si](C)(C)C)c2ccccc12
In C1CCCCC1
  fluorescence lifetime: 2 ns

## COc1ccc(C2=C(c3ccc(OC)cc3)C(c3ccccc3)=[N+]3C2=Nc2c(-c4ccc(OC)cc4)c(-c4ccc(OC)cc4)c(-c4ccccc4)n2[B-]3(F)F)cc1
In Cc1ccccc1
  fluorescence lifetime: 0.08 ns

## Cc1ccc(C#Cc2ccc(C#Cc3ccc(C#Cc4ccccc4C#N)cc3C#N)cc2C#N)cc1
In ClC(Cl)Cl
  fluorescence lifetime: 1.23 ns
